Laboratory results: PubChem BioAssay AID1963864 (Molecular Pharmacology Branch, DTP, NCI, 2024)

Tested on: KRAS PDC multicell spheroid viability
Experiment: Anticancer human tumor 521955-158-R6-J3-PDC patient-derived pancreatic carcinoma cell line growth inhibition [KRAS2]
Conditions: for IC50: curve of first compound; for viability, T/C: stronger effect = lower value
In short: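 KRAS-mutant tumor cells were grown as spheroids with HUVEC endothelial cells and human MSCs as stroma. Targeted agents were tested alone and with KRAS pathway inhibitors. Doses started at or near clinical Cmax, or 10 microM, descending half-log.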

[1] = second compound 0.1 µM, first compound 0.0316 µM
[2] = second compound 0.1 µM, first compound 0.1 µM
[3] = second compound 0.1 µM, first compound 0.316 µM
[4] = second compound 0.1 µM, first compound 1 µM
[5] = second compound 0.1 µM, first compound 3.16 µM
[6] = second compound 0.1 µM, first compound 10 µM
[7] = second compound 0.316 µM, first compound 0.0316 µM
[8] = second compound 0.316 µM, first compound 0.1 µM
[9] = second compound 0.316 µM, first compound 0.316 µM
[10] = second compound 0.316 µM, first compound 1 µM
[11] = second compound 0.316 µM, first compound 3.16 µM
[12] = second compound 0.316 µM, first compound 10 µM
[13] = second compound 1 µM, first compound 0.0316 µM
[14] = second compound 1 µM, first compound 0.1 µM
[15] = second compound 1 µM, first compound 0.316 µM
[16] = second compound 1 µM, first compound 1 µM
[17] = second compound 1 µM, first compound 3.16 µM
[18] = second compound 1 µM, first compound 10 µM
[19] = second compound 3.16 µM, first compound 0.0316 µM
[20] = second compound 3.16 µM, first compound 0.1 µM
[21] = second compound 3.16 µM, first compound 0.316 µM
[22] = second compound 3.16 µM, first compound 1 µM
[23] = second compound 3.16 µM, first compound 3.16 µM
[24] = second compound 3.16 µM, first compound 10 µM
[25] = second compound 10 µM, first compound 0.0316 µM
[26] = second compound 10 µM, first compound 0.1 µM
[27] = second compound 10 µM, first compound 0.316 µM
[28] = second compound 10 µM, first compound 1 µM
[29] = second compound 10 µM, first compound 3.16 µM
[30] = second compound 10 µM, first compound 10 µM
[31] = second compound 0.1 µM, first compound 0.00316 µM
[32] = second compound 0.1 µM, first compound 0.01 µM
[33] = second compound 0.316 µM, first compound 0.00316 µM
[34] = second compound 0.316 µM, first compound 0.01 µM
[35] = second compound 1 µM, first compound 0.00316 µM
[36] = second compound 1 µM, first compound 0.01 µM
[37] = second compound 3.16 µM, first compound 0.00316 µM
[38] = second compound 3.16 µM, first compound 0.01 µM
[39] = second compound 10 µM, first compound 0.00316 µM
[40] = second compound 10 µM, first compound 0.01 µM
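Note: drug exposure lasted seven days.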
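Throughout, for viability, T/C: 100% = DMSO vehicle wells and lower means fewer viable cells.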

With `CC(C)NCC(C(=O)N1CCN(c2ncnc3c2C(C)CC3O)CC1)c1ccc(Cl)cc1` (stereo not given) + CNCc1ccccc1-c1csc(C(C)Nc2nc(C)nc3cc(OC)c(OC)cc23)c1 the IC50 (second compound 0.1 µM) was > 10000 nM, the IC50 (second compound 0.316 µM) was > 10000 nM and the IC50 (second compound 1 µM) was > 10000 nM. For the same compound, the IC50 (second compound 3.16 µM) was < 31.6 nM, the IC50 (second compound 10 µM) was < 31.6 nM and the viability, T/C [1] was 88.1%. It also gave a viability, T/C [2] of 84.2%, a viability, T/C [3] of 74.7% and a viability, T/C [4] of 69.8%. It also gave a viability, T/C [5] of 80.4%, a viability, T/C [6] of 70.2% and a viability, T/C [7] of 74.9%. It also gave a viability, T/C [8] of 80%, a viability, T/C [9] of 64.8% and a viability, T/C [10] of 64.5%. The viability, T/C [11] was 66.7%, the viability, T/C [12] was 63% and the viability, T/C [13] was 77.6%. For the same compound, the viability, T/C [14] was 62.7%, the viability, T/C [15] was 67.6% and the viability, T/C [16] was 64.3%. It also gave a viability, T/C [17] of 66.9%, a viability, T/C [18] of 61.4% and a viability, T/C [19] of 0.31%. For the same compound, the viability, T/C [20] was 0.37%, the viability, T/C [21] was 0.26% and the viability, T/C [22] was 0.31%. The viability, T/C [23] was 1.96%, the viability, T/C [24] was 0.86% and the viability, T/C [25] was 0.16%. For the same compound, the viability, T/C [26] was 0.14%, the viability, T/C [27] was 0.24% and the viability, T/C [28] was 0.25%. It also gave a viability, T/C [29] of 0.16% and a viability, T/C [30] of 0.27%.
In the case of `CC1(C)CCC(CN2CCN(c3ccc(C(=O)NS(=O)(=O)c4ccc(NCC5CCOCC5)c([N+](=O)[O-])c4)c(Oc4cnc5[nH]ccc5c4)c3)CC2)=C(c2ccc(Cl)cc2)C1` + CNCc1ccccc1-c1csc(C(C)Nc2nc(C)nc3cc(OC)c(OC)cc23)c1, the IC50 (second compound 0.1 µM) is reported as 6690 nM, the IC50 (second compound 0.316 µM) is reported as 5170 nM and the IC50 (second compound 1 µM) is reported as 3810 nM. The IC50 (second compound 3.16 µM) was < 31.6 nM, the IC50 (second compound 10 µM) was < 31.6 nM and the viability, T/C [1] was 98.5%. For the same compound, the viability, T/C [2] was 98.1%, the viability, T/C [3] was 94.6% and the viability, T/C [4] was 97.1%. It also gave a viability, T/C [5] of 81.3%, a viability, T/C [6] of 32.9% and a viability, T/C [7] of 96.8%. The viability, T/C [8] was 90.5%, the viability, T/C [9] was 90.2% and the viability, T/C [10] was 84.2%. The viability, T/C [11] was 71%, the viability, T/C [12] was 23.2% and the viability, T/C [13] was 83%. For the same compound, the viability, T/C [14] was 83.6%, the viability, T/C [15] was 84.4% and the viability, T/C [16] was 82.6%. For the same compound, the viability, T/C [17] was 56.8%, the viability, T/C [18] was 14.7% and the viability, T/C [19] was 0.59%. The viability, T/C [20] was 1.4%, the viability, T/C [21] was 0.57% and the viability, T/C [22] was 0.81%. The viability, T/C [23] was 1.65%, the viability, T/C [24] was 3.03% and the viability, T/C [25] was 0.22%. The viability, T/C [26] was 0.61%, the viability, T/C [27] was 0.21% and the viability, T/C [28] was 0.23%. For the same compound, the viability, T/C [29] was 1.01% and the viability, T/C [30] was 0.27%.
With `CCN1CCN(Cc2ccc(Nc3ncc(F)c(-c4cc(F)c5nc(C)n(C(C)C)c5c4)n3)nc2)CC1` + CNCc1ccccc1-c1csc(C(C)Nc2nc(C)nc3cc(OC)c(OC)cc23)c1 the IC50 (second compound 0.1 µM) was > 1000 nM, the IC50 (second compound 0.316 µM) was > 1000 nM and the IC50 (second compound 1 µM) was 317 nM. For the same compound, the IC50 (second compound 3.16 µM) was < 3.16 nM, the IC50 (second compound 10 µM) was < 3.16 nM and the viability, T/C [31] was 75.1%. For the same compound, the viability, T/C [32] was 77.8%, the viability, T/C [1] was 70.5% and the viability, T/C [2] was 67.1%. For the same compound, the viability, T/C [3] was 72.1%, the viability, T/C [4] was 102% and the viability, T/C [33] was 77.7%. It also gave a viability, T/C [34] of 71.9%, a viability, T/C [7] of 74.1% and a viability, T/C [8] of 68%. The viability, T/C [9] was 67.5%, the viability, T/C [10] was 80.2% and the viability, T/C [35] was 66.8%. The viability, T/C [36] was 70.3%, the viability, T/C [13] was 63.5% and the viability, T/C [14] was 53.8%. The viability, T/C [15] was 54.8%, the viability, T/C [16] was 30.8% and the viability, T/C [37] was 0.3%. For the same compound, the viability, T/C [38] was 0.38%, the viability, T/C [19] was 0.51% and the viability, T/C [20] was 0.75%. It also gave a viability, T/C [21] of 0.45%, a viability, T/C [22] of 0.37% and a viability, T/C [39] of 0.25%. The viability, T/C [40] was 0.26%, the viability, T/C [25] was 0.3% and the viability, T/C [26] was 0.21%. It also gave a viability, T/C [27] of 0.22% and a viability, T/C [28] of 0.46%.
`Cn1ncnc1[C@H]1c2n[nH]c(=O)c3cc(F)cc(c23)N[C@@H]1c1ccc(F)cc1` + CNCc1ccccc1-c1csc(C(C)Nc2nc(C)nc3cc(OC)c(OC)cc23)c1 was tested, and the IC50 (second compound 0.1 µM) was > 100 nM, the IC50 (second compound 0.316 µM) was > 100 nM and the IC50 (second compound 1 µM) was > 100 nM. For the same compound, the IC50 (second compound 3.16 µM) was < 0.316 nM, the IC50 (second compound 10 µM) was < 0.316 nM and the viability, T/C (second compound 0.1 µM, first compound 0.000316 µM) was 96.3%. For the same compound, the viability, T/C (second compound 0.1 µM, first compound 0.001 µM) was 93.7%, the viability, T/C [31] was 85.5% and the viability, T/C [32] was 92.1%. It also gave a viability, T/C [1] of 85.9%, a viability, T/C [2] of 90.6% and a viability, T/C (second compound 0.316 µM, first compound 0.000316 µM) of 89.1%. The viability, T/C (second compound 0.316 µM, first compound 0.001 µM) was 82.2%, the viability, T/C [33] was 91.1% and the viability, T/C [34] was 80%. For the same compound, the viability, T/C [7] was 80.5%, the viability, T/C [8] was 72.2% and the viability, T/C (second compound 1 µM, first compound 0.000316 µM) was 68.3%. For the same compound, the viability, T/C (second compound 1 µM, first compound 0.001 µM) was 78.4%, the viability, T/C [35] was 72.2% and the viability, T/C [36] was 74.4%. The viability, T/C [13] was 78.4%, the viability, T/C [14] was 70.2% and the viability, T/C (second compound 3.16 µM, first compound 0.000316 µM) was 0.28%. It also gave a viability, T/C (second compound 3.16 µM, first compound 0.001 µM) of 2.23%, a viability, T/C [37] of 0.7% and a viability, T/C [38] of 0.93%. For the same compound, the viability, T/C [19] was 1.22%, the viability, T/C [20] was 1.42% and the viability, T/C (second compound 10 µM, first compound 0.000316 µM) was 0.15%. The viability, T/C (second compound 10 µM, first compound 0.001 µM) was 0.17%, the viability, T/C [39] was 0.15% and the viability, T/C [40] was 0.86%. For the same compound, the viability, T/C [25] was 0.21% and the viability, T/C [26] was 0.26%.
